Experimental findings from US7598234B2, “Steroid derived antibiotics” (Brigham Young University, priority 1998, dated 2009) are described below.

As usually defined, the MBC is the lowest tested concentration that kills the bacteria rather than only halting them. A lower MBC goes with more potent killing. In general, MIC refers to the least concentration at which growth counts as inhibited.

Assay [1] deals with E. coli (ATCC 25922). The experiment in a line: Sensitization to erythromycin, E. coli (ATCC 25922). Format: cell-based, Escherichia coli. The settings on record: Table 16; E. coli. As for the experimental part:
FICs can be performed by checkerboard titrations of compounds in one dimension of a microtiter plate, and of antibiotics in the other dimension, for example. The FIC is calculated by looking at the impact of one antibiotic on the MIC of the other and vice versa. […] Preferably, an FIC of less than 0.5 is obtained for synergism. As used herein, FIC can be determined as follows:
(§1) Aliquots of 1 mL of the suspension were added to test tubes containing 1 mL TSB and incrementally varied concentrations of cholic acid derivatives and/or erythromycin or novobiocin. In the sensitization experiments, erythromycin or novobiocin were added 15 minutes later than the cholic acid derivatives. The samples were subjected to stationary incubation at 37° C. for 24 hours. Sample turbidity was determined by measuring absorption at 760 nm (HP 8453 UV-Visible Chemstation, Hewlett Packard). Additionally, an alliquot from each of the samples showing no measurable turbidity was subcultured on TSA plates (alliquots were diluted to provide fewer than 300 CFU). Colonies that grew on the subculture after overnight incubation were counted and the number of CFU/mL in the samples were calculated. The calculated values were compared to the number of CFU/mL in the original inoculum.
Concentrations of 0.5, 1.0 or 3.0 μg/mL of these antibiotics were used, and the concentrations of the cholic acid derivatives required to inhibit bacterial growth of Gram-negative strains were determined.
Minimum inhibition concentrations (MIC) and minimum hemolytic concentrations (MHC) were measured as described in Li et al., Antimicrob. Agents. Chemother., 1999, 43, 1347.

Assay [2] deals with E. coli (ATCC 25922). Description: MIC and MBC measurement with E. coli (ATCC 25922). Format: cell-based, Escherichia coli. The settings on record: for MIC (MIC^b): Table 16, E. coli (ATTC 25922).
Source text: (§2) General: Microorganisms. Reference strains were purchased from the American Type Culture Collection (Rockville, Md.) or Bactrol disks from Difeo Laboratories (Detroit, Mich.). The following specific ATCC strains were used: 10798 Escherichia coli, 25922 Escherichia coli, 13883 Klebsiella pneumoniae, 27853 Pseudomonas aeruginosa, 14028 Salmonella typhimurium, 29212 Enterococcus faecalis, 25923 Staphylococcus aureus, 19615 Streptococcus pyogenes, and 90028 Candida albicans. Bacterial strains were maintained on Mueller-Hinton agar plates, and Candida albicans was maintained on Sabouraud Dextrose agar plates.
(§3) Tryptic soy broth (TSB) was made by dissolving 27.5 grams of tryptic soy broth without dextrose (DIFCO Laboratories) in 1 liter of deionized water and sterilizing at 121° C. for 15 minutes. Solid agar (TSA) plates were made by dissolving 6.4 grams of tryptic soy broth and 12 grams of agar (purified grade, Fischer Scientific) in 800 mL of deionized water and sterilizing at 121° C. for 20 minutes. Aliquots (20 mL) of the homogeneous solution were then poured in sterile plastic petri dishes (100×15 mm, Fisher Scientific). Solutions of compounds were made by dissolving the HCl salt of the respective compound into an appropriate amount of deionized and sterilized water followed by microfiltration.
as §1, with “inoculum. […]” for “inoculum.”

Assay [3] has as its system Staphylococcus aureus ATCC 25923. The experiment in a line: MIC and MBC measurement with Staphylococcus aureus ATCC 25923. It counts as cell-based. The settings on record: for MIC (MIC^a): Table 16, S. aureus (ATTC 25923).
Source text: as §2, §3
as §1, with “inoculum. […]” for “inoculum.”

Assay [4] relates to E. coli (ATCC 10798). The experiment in a line: Sensitization to novobiocin (concentration lowering the MIC of novobiocin), E. coli (ATCC 10798). It counts as cell-based, Escherichia coli. The conditions noted are these: Table 9; Escherichia coli (ATCC 10798). As for the experimental part: (§4) Alternatively, “fractional inhibitory concentration (FIC)” is also useful for determination of synergy between the compounds of the invention, or the compounds in combination with known antibiotics. FICs can be performed by checkerboard titrations of compounds in one dimension of a microtiter plate, and of antibiotics in the other dimension, for example. The FIC is calculated by looking at the impact of one antibiotic on the MIC of the other and vice versa. […] Preferably, an FIC of less than 0.5 is obtained for synergism. As used herein, FIC can be determined as follows:
as §1
(§5) Ability to permeabilize outer membrane: Compounds 11, 106, and 108-114 (FIG. 1) were tested for antibiotic activity. They were also tested for the ability to permeabilize the outer membrane of Gram-negative bacteria, causing sensitization to hydrophobic antibiotics that cannot cross the outer membrane. The permeabilization of the outer membrane was measured using erythromycin and novobiocin.
(§6) The MICs of erythromycin and novobiocin against E. coli (ATCC 10798) at 70 and >500 μg/mL were measured.

Assay [5] has as its system E. coli (ATCC 10798). Description: Sensitization to erythromycin (concentration lowering the MIC of erythromycin), E. coli (ATCC 10798). It counts as cell-based, Escherichia coli. The settings on record: Table 9; Escherichia coli (ATCC 10798). As for the experimental part: as §4, §1, §5, §6
Assay [6] deals with E. coli (ATCC 10798). Description: MIC and MBC measurement with E. coli (ATCC 10798). It counts as cell-based, Escherichia coli. The conditions noted are these: Table 9; Escherichia coli (ATCC 10798).
Source text: as §2, §3, §1

≈ marks a conversion by molar mass, not a printed value.

As for `CCCCCCCCOC(=O)CC[C@@H](C)[C@H]1CC[C@H]2[C@@H]3[C@H](OC(=O)CCCN)C[C@@H]4C[C@H](OC(=O)CCCN)CC[C@]4(C)[C@H]3C[C@H](OC(=O)CCCN)[C@]12C` [Compound 343], the “c: concentration required to lower the MIC of erythromycin from 36 to 1 μg/mL” value in the assay with E. coli (ATCC 25922) [1] turned out to be 3.5 µg/mL. For the same compound, the “MIC (MIC^b)” value against E. coli (ATCC 25922) [2] amounted to 3.5 µg/mL (≈ 4.51 µM). Also, the “MIC (MIC^a)” value in assay [3] was 1.2 µg/mL (≈ 1.55 µM).
With polymyxin B [PMB, reference compound], the MBC is 1.8 µg/mL in the assay on E. coli (ATCC 25922) [2] (Table 10, Escherichia coli ATCC 25922) and over 100 µg/mL in assay [3] (Table 10, Staphylococcus aureus ATCC 25923).
Take `CCCCCCCCOC(=O)CC[C@@H](C)[C@H]1CC[C@H]2[C@@H]3[C@H](OC(=O)CN)C[C@@H]4C[C@H](OC(=O)CN)CC[C@]4(C)[C@H]3C[C@H](OC(=O)CN)[C@]12C` [Compound 341]: the “c: concentration required to lower the MIC of erythromycin from 36 to 1 μg/mL” value in the assay on E. coli (ATCC 25922) [1] turned out to be 0.7 µg/mL. The “MIC (MIC^b)” value in the assay with E. coli (ATCC 25922) [2] worked out at 1.0 µg/mL (≈ 1.45 µM). Further, in assay [3], the “MIC (MIC^a)” value worked out at 1.8 µg/mL (≈ 2.6 µM).
On to `COCCC[C@@H](C)[C@H]1CC[C@H]2[C@@H]3[C@H](OCCCN)C[C@@H]4C[C@H](OCCCN)CC[C@]4(C)[C@H]3C[C@H](OCCCN)[C@]12C` [Compound 111], for which, in the assay on E. coli (ATCC 10798) [4], the “(d) Concentration required to lower the MIC of novobiocin from >500 to 1 μg/mL” value is 2.0 µg/mL and the “FIC values with novobiocin” value stood at 0.069. Moreover, in the assay on E. coli (ATCC 10798) [5], the “(a) Concentration required to lower the MIC of erythromycin from 70 to 1 μg/mL” value came out at 1.0 µg/mL, the “(b) MBC with 1 μg/mL erythromycin” value is 20 µg/mL and the “FIC values with erythromycin” value came to 0.048. Besides, in the assay on E. coli (ATCC 10798) [6], the minimal bactericidal concentration (MBC) turned out to be 33 µg/mL (≈ 56.9 µM) and the MIC came out at 30 µg/mL (≈ 51.7 µM).
